Measurements published in the C3SDB collision cross section collection.

Columns and labels:
[1] = instrument: TW, calibrated with phosphatidylcholines (ESI+) and phosphatidylethanolamines (ESI-), doubly charged cardiolipins calibrated with poly-DL-…
[2] = [M+H]+; instrument: DT; single field
[3] = instrument: DT, stepped-field
[4] = instrument: DT, single field, calibrated with Agilent tune mix (Agilent)
[5] = [M+H]+; instrument: TW; calibrated with phosphatidylcholines (ESI+) and phosphatidylethanolamines (ESI-)

SMILES | collision cross section (N2) ([1]; [M+Na]+) [Å²] | collision cross section (N2) ([1]; [M-H]-) [Å²] | other results
CCCCCC/C=C\CCCCCCCC(=O)OC[C@H](COP(=O)(O)OCCNC(=O)CCCCCCCCCCCCCCC)OC(=O)CCCCCCCCCCCCCCC [AcylPE(48:1)] | 325 | 316.85 | –
CCCCCCCCCCCCCCCC(=O)NCCOP(=O)(O)OC[C@@H](COC(=O)CCCCCCCCCCCCCCC)OC(=O)CCCCCCCC1CC1CCCCCC (some centres not stated) [AcylPE(49:1)] | 328.3 | 320.39 | –
CCCCCC/C=C\CCCCCCCC(=O)OC[C@H](COP(=O)(O)OC[C@@H](O)COC(=O)CCCCCCCCCCCCCCC)OC(=O)CCCCCCCCCCCCCCC [AcylPG(48:1)] | 327.7 | 316.96 | –
CCCCCCCCCCCCCCCC(=O)OC[C@H](O)COP(=O)(O)OC[C@@H](COC(=O)CCCCCCCCCCCCCCC)OC(=O)CCCCCCCC1CC1CCCCCC (some centres not stated) [AcylPG(49:1)] | 332.3 | 320.54 | –
CCCCCC/C=C\CCCCCCCC(=O)OCC(COP(=O)(O)OCC(O)COP(=O)(O)OCC(COC(=O)CCCCCCCCCCCCCC)OC(=O)CCCCCCC/C=C\CCCCCC)OC(=O)CCCCCCC/C=C\CCCCCC (configuration not stated) [CL(63:3)] | – | – | collision cross section (N2) ([1]; [M-2H]2-): 394.68 Å²
CCCCCC/C=C\CCCCCCCC(=O)OC(COC(=O)CCCCCCCC1CC1CCCCCC)COP(=O)(O)OCC(O)COP(=O)(O)OCC(COC(=O)CCCCCCCCCCCCCCC)OC(=O)CCCCCCC/C=C\CCCCCCCC (configuration not stated) [CL(67:3)] | – | – | collision cross section (N2) ([1]; [M+2K]2+): 428.6 Å²; collision cross section (N2) ([1]; [M-2H]2-): 404.47 Å²
CCCCCC/C=C\CCCCCCCC(=O)OCC(COP(=O)(O)OCC(O)COP(=O)(O)OCC(COC(=O)CCCCCCCC1CC1CCCCCC)OC(=O)CCCCCCC/C=C\CCCCCC)OC(=O)CCCCCCC/C=C\CCCCCCCC (configuration not stated) [CL(67:4)] | – | – | collision cross section (N2) ([1]; [M-2H]2-): 404.19 Å²
CCCCCC/C=C\CCCCCCCC(=O)OC(COC(=O)CCCCCCCC1CC1CCCCCCCC)COP(=O)(O)OCC(O)COP(=O)(O)OCC(COC(=O)CCCCCCCCCCCCCCC)OC(=O)CCCCCCC/C=C\CCCCCCCC (configuration not stated) [CL(69:3)] | – | – | collision cross section (N2) ([1]; [M-2H]2-): 408.91 Å²
CCCCCCCCCCCCCCC(=O)O[C@H](CO)COP(=O)([O-])OCC[NH3+] [LPE(0:0/15:0)] | 216.84 | 202.25 | collision cross section (N2) ([1]; [M+H]+): 212.69 Å²
CCCCCCCC/C=C/CCCCCCCC(=O)O[C@H](CO)COP(=O)([O-])OCC[NH3+] [LPE(0:0/18:1)] | 220.12 | 210.71 | collision cross section (N2) ([1]; [M+H]+): 215.99 Å²
CCCCCCCCCCCCCC(=O)OC[C@@H](O)COP(=O)([O-])OCC[NH3+] [LPE(14:0/0:0)] | 212.49 | 199.2 | collision cross section (N2) ([1]; [M+H]+): 206.14 Å²
CCCCC1CC1CCCCCCCC(=O)OC[C@@H](O)COP(=O)([O-])OCC[NH3+] (some centres not stated) [LPE(15:1/0:0)] | – | 200.28 | –
CCCCCCCC/C=C/CCCCCCCC(=O)OC[C@@H](O)COP(=O)([O-])OCC[NH3+] [LPE(18:1/0:0)] | 219.17 | 211.1 | collision cross section (N2) ([1]; [M+H]+): 214.35 Å²
CCCCCCCCC1CC1CCCCCCCC(=O)OC[C@@H](O)COP(=O)([O-])OCC[NH3+] (some centres not stated) [LPE(19:1/0:0)] | 225.77 | 214.97 | collision cross section (N2) ([1]; [M+H]+): 219.65 Å²
CCCCCCCCCCCCCCC(=O)OC[C@@H](O)COP(=O)(O)OCC(O)CO (some centres not stated) [LPG(15:0)] | – | 209.66 | –
CCCCCCCCCCCCCCCC(=O)O[C@H](CO)COP(=O)(O)OCC(O)CO (some centres not stated) [LPG(16:0)] | – | 213.25 | –
CCCCCC/C=C/CCCCCCCC(=O)O[C@H](CO)COP(=O)(O)OCC(O)CO (some centres not stated) [LPG(16:1)] | – | 209.98 | –
CCCCCCC1CC1CCCCCCCC(=O)O[C@H](CO)COP(=O)(O)OCC(O)CO (some centres not stated) [LPG(17:1)] | – | 213.68 | –
C=CCCCCCCCCCCCCC(=O)O[C@H](COC(=O)CCCCCCCCCCCCCCC)COP(=O)([O-])OCC[N+](C)(C)C [PC(31:1)] | – | – | collision cross section (N2) [2]: 276.07 Å²; collision cross section (N2) ([3]; [M+K]+): 286.5 Å²
CCCCCC/C=C\CCCCCCCCCC(=O)OC[C@H](COP(=O)([O-])OCC[N+](C)(C)C)OC(=O)CCCCCCCCCCCCC [PC(32:1)] | – | – | collision cross section (N2) [2]: 279.13 Å²; collision cross section (N2) ([4]; [M+Na]+): 282.6 Å²; collision cross section (N2) [5]: 278 Å²
CCCCCCCCCCCCC=CC[C@@H](O)[C@H](COP(=O)([O-])OCC[N+](C)(C)C)NC(=O)CCCCCCCCCCCCCCCC [SM(35:1)] | – | – | collision cross section (N2) [2]: 284.31 Å²; collision cross section (N2) ([4]; [M+H]+): 285.1 Å²; collision cross section (N2) ([4]; [M+Na]+): 285.6 Å²; collision cross section (N2) ([3]; [M+Na]+): 289.1 Å²
